In patent US20200370087A1, “METHOD FOR DETERMINING MICROBIAL SUSCEPTIBILITY TO ANTIBIOTIC AGENTS” (Ascilion AB, priority 2017, published 2020):
Converted amounts (≈) assume the structure as drawn. Where two headings read alike, the source gives them in different places.

Columns and labels:
[1] = test system: Enterococcus faecalis (ATCC 29212); assay: Glucose consumption susceptibility test, blood culture diluted in MHB with glucose (Example 1); assay type: cell-based; design: glucose concentration, t = 0 / glucose concentration, t = 60 / glucose concentration, t = 120 / glucose concentration, t = 180 / glucose concentration, t = 240 / dC/dT (rate of change in glucose concentration): unit not given here; details: for glucose concentration, t = 0: 0 minutes; for glucose concentration, t = 60: 60 minutes; for glucose concentration, t = 120: 120 minutes; for glucose concentration, t = 180: 180 minutes; for glucose concentration, t = 240: 240 minutes; for MIC: Enterococcus faecalis
Procedure, shortened: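 Glucose was measured by glucometer at 0, 60, 120, 180 and 240 min after 1:100 dilution of positive blood culture in cation-adjusted MHB containing 1.0 mg/mL glucose.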

[2] = test system: Enterococcus faecalis ATCC 29212; details: E.faecalis, cited from earlier work
[3] = test system: Escherichia coli ATCC 25922; details: E.coli, cited from earlier work
[4] = E. faecalis, antibiotic 0.0625 μg/mL
[5] = E. faecalis, antibiotic 0.125 μg/mL
[6] = E. faecalis, antibiotic 0.25 μg/mL
[7] = E. faecalis, antibiotic 0.5 μg/mL
[8] = E. faecalis, antibiotic 1 μg/mL
[9] = E. faecalis, antibiotic 2 μg/mL
[10] = E. faecalis, antibiotic 4 μg/mL
[11] = E. faecalis, antibiotic 8 μg/mL
[12] = range obtained by EUCAST from ISO 20776-1: 2006
[13] = reference value, Mueller-Hinton agar, incubation 18±2 h, N/A = not susceptible
[14] = E. faecalis, antibiotic 16 μg/mL
[15] = E. faecalis, antibiotic 32 μg/mL

SMILES: CN[C@H](CC(C)C)C(=O)N[C@H]1C(=O)N[C@@H](CC(N)=O)C(=O)N[C@H]2C(=O)N[C@H]3C(=O)N[C@H](C(=O)N[C@H](C(=O)O)c4cc(O)cc(O)c4-c4cc3ccc4O)[C@H](O)c3ccc(c(Cl)c3)Oc3cc2cc(c3O[C@@H]2O[C@H](CO)[C@@H](O)[C@H](O)[C@H]2O[C@H]2C[C@](C)(N)[C@H](O)[C@H](C)O2)Oc2ccc(cc2Cl)[C@H]1O [Vancomycin, vancomycin]
- F = the rate of change in glucose concentration in relation to the reference [1, 4]: 93%
- dC/dT (rate of change in glucose concentration) [1, 4]: 34
- glucose concentration, t = 0 [1, 4]: 145
- glucose concentration, t = 60 [1, 4]: 156
- glucose concentration, t = 120 [1, 4]: 139
- glucose concentration, t = 180 [1, 4]: 89
- F = the rate of change in glucose concentration in relation to the reference [1, 5]: 83%
- dC/dT (rate of change in glucose concentration) [1, 5]: 30
- glucose concentration, t = 0 [1, 5]: 148
- glucose concentration, t = 60 [1, 5]: 154
- glucose concentration, t = 120 [1, 5]: 149
- glucose concentration, t = 180 [1, 5]: 94
- F = the rate of change in glucose concentration in relation to the reference [1, 6]: 82%
- dC/dT (rate of change in glucose concentration) [1, 6]: 30
- glucose concentration, t = 0 [1, 6]: 143
- glucose concentration, t = 60 [1, 6]: 155
- glucose concentration, t = 120 [1, 6]: 146
- glucose concentration, t = 180 [1, 6]: 96
- F = the rate of change in glucose concentration in relation to the reference [1, 7]: 82%
- dC/dT (rate of change in glucose concentration) [1, 7]: 30
- glucose concentration, t = 0 [1, 7]: 154
- glucose concentration, t = 60 [1, 7]: 155
- glucose concentration, t = 120 [1, 7]: 148
- glucose concentration, t = 180 [1, 7]: 96
- F = the rate of change in glucose concentration in relation to the reference [1, 8]: 75%
- dC/dT (rate of change in glucose concentration) [1, 8]: 27
- glucose concentration, t = 0 [1, 8]: 151
- glucose concentration, t = 60 [1, 8]: 164
- glucose concentration, t = 120 [1, 8]: 153
- glucose concentration, t = 180 [1, 8]: 110
- F = the rate of change in glucose concentration in relation to the reference [1, 9]: 29%
- dC/dT (rate of change in glucose concentration) [1, 9]: 11
- glucose concentration, t = 0 [1, 9]: 147
- glucose concentration, t = 60 [1, 9]: 160
- glucose concentration, t = 120 [1, 9]: 152
- glucose concentration, t = 180 [1, 9]: 139
- glucose concentration, t = 240 [1, 9]: 94
- F = the rate of change in glucose concentration in relation to the reference [1, 10]: 19%
- dC/dT (rate of change in glucose concentration) [1, 10]: 7
- glucose concentration, t = 0 [1, 10]: 147
- glucose concentration, t = 60 [1, 10]: 162
- glucose concentration, t = 120 [1, 10]: 153
- glucose concentration, t = 180 [1, 10]: 148
- glucose concentration, t = 240 [1, 10]: 149
- F = the rate of change in glucose concentration in relation to the reference [1, 11]: 7%
- dC/dT (rate of change in glucose concentration) [1, 11]: 3
- glucose concentration, t = 0 [1, 11]: 150
- glucose concentration, t = 60 [1, 11]: 156
- glucose concentration, t = 120 [1, 11]: 146
- glucose concentration, t = 180 [1, 11]: 151
- glucose concentration, t = 240 [1, 11]: 145
- MIC ([1]; ATCC29212, read-out: MIC, Measured): 1 µg/mL (≈ 0.69 µM)
- MIC, EUCAST, range in parentheses [2, 12]: (1-4) ug/mL
- MIC, EUCAST [2, 13]: 2 µg/mL (≈ 1.38 µM)

SMILES: CO[C@@]1(NC(=O)Cc2cccs2)C(=O)N2C(C(=O)O)=C(COC(N)=O)CS[C@@H]21 [Cefoxitin, cefoxitin]
- F = the rate of change in glucose concentration in relation to the reference [1, 6]: 93%
- dC/dT (rate of change in glucose concentration) [1, 6]: 34
- glucose concentration, t = 0 [1, 6]: 151
- glucose concentration, t = 60 [1, 6]: 155
- glucose concentration, t = 120 [1, 6]: 138
- glucose concentration, t = 180 [1, 6]: 88
- glucose concentration, t = 240 [1, 6]: 34
- F = the rate of change in glucose concentration in relation to the reference [1, 7]: 88%
- dC/dT (rate of change in glucose concentration) [1, 7]: 32
- glucose concentration, t = 0 [1, 7]: 145
- glucose concentration, t = 60 [1, 7]: 150
- glucose concentration, t = 120 [1, 7]: 144
- glucose concentration, t = 180 [1, 7]: 87
- glucose concentration, t = 240 [1, 7]: 32
- F = the rate of change in glucose concentration in relation to the reference [1, 8]: 85%
- dC/dT (rate of change in glucose concentration) [1, 8]: 31
- glucose concentration, t = 0 [1, 8]: 148
- glucose concentration, t = 60 [1, 8]: 159
- glucose concentration, t = 120 [1, 8]: 142
- glucose concentration, t = 180 [1, 8]: 98
- glucose concentration, t = 240 [1, 8]: 31
- F = the rate of change in glucose concentration in relation to the reference [1, 9]: 99%
- dC/dT (rate of change in glucose concentration) [1, 9]: 36
- glucose concentration, t = 0 [1, 9]: 149
- glucose concentration, t = 60 [1, 9]: 169
- glucose concentration, t = 120 [1, 9]: 145
- glucose concentration, t = 180 [1, 9]: 98
- glucose concentration, t = 240 [1, 9]: 36
- F = the rate of change in glucose concentration in relation to the reference [1, 10]: 74%
- dC/dT (rate of change in glucose concentration) [1, 10]: 27
- glucose concentration, t = 0 [1, 10]: 150
- glucose concentration, t = 60 [1, 10]: 159
- glucose concentration, t = 120 [1, 10]: 146
- glucose concentration, t = 180 [1, 10]: 106
- glucose concentration, t = 240 [1, 10]: 27
- F = the rate of change in glucose concentration in relation to the reference [1, 11]: 63%
- dC/dT (rate of change in glucose concentration) [1, 11]: 23
- glucose concentration, t = 0 [1, 11]: 144
- glucose concentration, t = 60 [1, 11]: 149
- glucose concentration, t = 120 [1, 11]: 147
- glucose concentration, t = 180 [1, 11]: 104
- glucose concentration, t = 240 [1, 11]: 23
- F = the rate of change in glucose concentration in relation to the reference [1, 14]: 68%
- dC/dT (rate of change in glucose concentration) [1, 14]: 25
- glucose concentration, t = 0 [1, 14]: 148
- glucose concentration, t = 60 [1, 14]: 154
- glucose concentration, t = 120 [1, 14]: 148
- glucose concentration, t = 180 [1, 14]: 105
- glucose concentration, t = 240 [1, 14]: 25
- F = the rate of change in glucose concentration in relation to the reference [1, 15]: 74%
- dC/dT (rate of change in glucose concentration) [1, 15]: 27
- glucose concentration, t = 0 [1, 15]: 148
- glucose concentration, t = 60 [1, 15]: 155
- glucose concentration, t = 120 [1, 15]: 140
- glucose concentration, t = 180 [1, 15]: 102
- glucose concentration, t = 240 [1, 15]: 27
- MIC ([1]; ATCC29212, E. faecalis, 80% threshold, disregarded as rate of decrease was higher at 32 μg/mL, read-out: MIC value initially obtained (disregarded)): 4 µg/mL (≈ 9.36 µM)
- MIC, EUCAST, range in parentheses [3, 12]: (2-8) ug/mL
- MIC, EUCAST [3, 13]: 4 µg/mL (≈ 9.36 µM)
